Data as given in paper PMC10451034, “Highly Efficient Photosensitizers with Molecular Vibrational Torsion for Cancer Photodynamic Therapy” (ACS Central Science, 2023).

Key:
HepG2 cells [1] = assay: Mitochondrial membrane potential detection by JC-1 staining; format: cell-based, human; details: 660 nm irradiation (6 J/cm^2)
Description: Next, in order to verify the disruption effect on cell structural integrity of the ^1O2 generation by QTCy7-R under irradiation, JC-1 staining imaging was conducted to monitor the mitochondria membrane potential. […] On the other hand, cell membrane damage caused by the photooxidation of QTCy7-Ac and QTCy7-CHO could be confirmed by a visualized observation. […] Furthermore, the lactate dehydrogenase (LDH) content in cell culture medium was measured to characterize the extent of cell membrane damage.[49] […]
medium (DMEM, Invitrogen) with 10 % fetal bovine serum (Invitrogen) and 1% penicillinstreptomycin. All cells were treated at 37 °C with the humidified atmosphere containing 5% CO2 and 95% air. […]
(§1) Confocal fluorescence imaging
After culturing the cells in 35 mm glass-bottom cell dishes for 24 h, the DMEM medium was replaced with saline, then QTCy7-R was added (3 μM). The confocal fluorescence imaging was carried out and images were recorded. […] After fluorescence imaging, colocalization coefficient was analyzed and recorded. […]
(§2) fluorescence signal (JC-1 monomer). […]
(§3) 2,7-dichlorofluorescein diacetate (DCFH-DA) Detection Kit was chosen to validate the intracellular ROS generation. […] Then the cells were exposed under NIR irradiation, after which the confocal fluorescence imaging was performed . […]

[2] = Singlet oxygen yield in PBS with singlet oxygen sensor green (SOSG); format: physicochemical; details: 660 nm irradiation
Description: In order to further investigate the PDT ability of QTCy7-R on cancer cells, the UV–vis absorption and emission spectra and ^1O2 production capacity of QTCy7-R were tested in phosphate-buffered solution (PBS) to better mimic the cellular environment. […] Meanwhile, the fluorescence quenching of QTCy7-Ph and QTCy7-CHO also confirmed their aggregation in aqueous solution compared to the intense fluorescence emission of QTCy7-Ac. Furthermore, singlet oxygen sensor green (SOSG) was selected to investigate the ^1O2 quantum yield in PBS.
QTCy7-Ph, (e) QTCy7-Ac, (f) QTCy7-CHO, (g) TCy7 and (h) MB under 660 nm irradiation (4 mW/cm2) in PBS. (i) The relative singlet oxygen yield of different compounds in PBS.
Figure S19. (a) The cellular uptake of QTCy7-R in HepG2 cells (QTCy7-Me/QTCy7-Ph: λex = 640 […]
μm). (b) The fluorescence intensity of QTCy7-R in cell at different time. (c) The LDH release rate of cells under different treatment conditions.
Figure S20. The enlarged images of (a) QTCy7-Ac and (b) QTCy7-CHO caused cell membrane destruction at 0 min and 4 min. Yellow arrows indicate the formation of distinct bubble-like structures on cell membrane. (λex = 640 nm, λem = 650-750 nm, scale bars: 20 μm). […]

HepG2 cells [3] = assay: Intracellular ROS detection with DCFH-DA; format: cell-based, human; details: after 660 nm light irradiation
Description: In order to explore the mechanism of cellular structure destruction caused by QTCy7-R, intracellular ROS generation was investigated by DCFH-DA reagent. […] Ulteriorly, cell destruction caused by ROS generation was assessed by Calcein-AM/propidium iodide (PI)-mediated fluorescence imaging (Figures 9c and S21). […]
medium (DMEM, Invitrogen) with 10 % fetal bovine serum (Invitrogen) and 1% penicillinstreptomycin. All cells were treated at 37 °C with the humidified atmosphere containing 5% CO2 and 95% air. Before conducting cell imaging experiments, all types of cells were maintained on 35 mm glass-bottom cell dishes for 24 h.
as §1
After culturing the cells in 35 mm glass-bottom cell dishes for 24 h, the DMEM medium was replaced with saline, then QTCy7-R was added (3 μM). The confocal fluorescence imaging was carried out and images were recorded. (λex = 640 nm, λem = 680-780 nm). […] After fluorescence imaging, colocalization coefficient was analyzed and recorded. […]
as §2, §3

[4] = In vivo biosafety (body weight, H&E staining of major organs); design: species or system BALB/c mice
Description: The efficacy and safety of each therapeutic group were also evaluated by performing a hematoxylin and eosin (H&E) staining assay of major organs and tumor tissue (Figures 10g and S23). […]
of major organs, the mice L) was intravenously injected with QTCy7-Ac (200 μM, 100 μL) 2 hours in advance were killed and the main organs and tumors were removed for […]
Tumor suppression experiments of 4T1-subcutaneous tumor model
To confirm the in vivo PDT efficacy of QTCy7-Ac, all the BALB/c mice were divided into 6 groups: 1) saline injection; 2) saline injection with 660 nm irradiation (100 mW/cm2, 15 min); 3) QTCy7-Ac (200 μM, 100 μL) intratumoral injection; 4) QTCy7-Ac (200 μM, 100 μL) intratumoral injection with 660 nm irradiation (100 mW/cm2, 15 min); 5) QTCy7-Ac (200 μM, 100 μL) intravenous injection; 6) QTCy7-Ac (200 μM, 100 μL) intravenous injection with 660 nm irradiation (100 mW/cm2, 15 min); When the volume of subcutaneous tumors reached about 100 mm 3, mice were injected with PBS or QTCy7-Ac, respectively. […] In the following half month, the tumor volume of all the mice was measured every two days by a vernier caliper. The volume of tumors was calculated by the following formula: […]
The in vivo biocompatibility was evaluated by using measurement mice body weight and H&E slice histological analysis. […]
Data were expressed as mean ± standard deviation. […]

Compound	mitochondrial membrane potential change (HepG2 cells [1])	1O2 quantum yield relative to MB [2] [times]	intracellular ROS generation (DCFH-DA fluorescence) (HepG2 cells [3])	H&E staining of major organs (heart, liver, spleen, lung, kidney) ([4]; after 16 days of treatment)	body weight changes ([4]; during the treatment)
CCN1/C(=C/C=C2\C=C(C)C=C(/C=C/c3sc4ccccc4[n+]3CC)C2=O)Sc2ccccc21 [QTCy7-Me]	severe mitochondrial depolarization	–	–	–	–
CCOC(=O)C1=C/C(=C\C=C2/Sc3ccccc3N2CC)C(=O)C(/C=C/c2sc3ccccc3[n+]2CC)=C1 [QTCy7-Ac]	–	5.8	stronger fluorescence signal	not observed	no abnormal body weight changes
CCN1/C(=C/C=C2\C=C(c3ccccc3)C=C(/C=C/c3sc4ccccc4[n+]3CC)C2=O)Sc2ccccc21 [QTCy7-Ph]	severe mitochondrial depolarization	–	stronger fluorescence signal	–	–
